The source of these data is ChEMBL document CHEMBL4342504 (J Med Chem, 2020).

Active and inactive are the calls of the source. The calls are words filed in the database; no cut-off is given here.

Experiment [1] concerns Proteasome. Put plainly: Inhibition of proteasome in bortezomib resistant human KM3/BTZ cells assessed as increase in polyubiquitinated proteins accumulation at 10 to 100 nM incubated for 24 hrs Western blotting analysis.
Experiment [2] addresses T1, Histone deacetylase 1 (Homo sapiens, UniProt Q13547). Put plainly: Inhibition of HDAC1-dependent Sp1-HDAC1 pathway in bortezomib resistant human KM3/BTZ cells assessed as reduction in Sp1 accumulation at 10 to 100 nM incubated for 24 hrs Western blotting analysis. The format is cell-based. (In general: In western blotting, separated proteins are transferred to a membrane and probed.)

Experiment [3] addresses T1, Histone deacetylase 1. The experiment is described as follows: Inhibition of HDAC1-dependent Sp1-HDAC1 pathway in bortezomib resistant human KM3/BTZ cells assessed as reduction in HDAC1 accumulation at 10 to 100 nM incubated for 24 hrs Western blotting analysis. The format is cell-based.
The target of experiment [4] is Class 1 histone deacetylase (Homo sapiens, UniProt Q13547+O15379+Q92769+Q9BY41). The note with it: at 10 to 1000 nM.
Description: Inhibition of class 1 HDAC in human RPMI8226 cells assessed as increase in Ac-H3 accumulation at 10 to 1000 nM incubated for 24 hrs Western blotting analysis

T1 sequence (Q13547 whole entry): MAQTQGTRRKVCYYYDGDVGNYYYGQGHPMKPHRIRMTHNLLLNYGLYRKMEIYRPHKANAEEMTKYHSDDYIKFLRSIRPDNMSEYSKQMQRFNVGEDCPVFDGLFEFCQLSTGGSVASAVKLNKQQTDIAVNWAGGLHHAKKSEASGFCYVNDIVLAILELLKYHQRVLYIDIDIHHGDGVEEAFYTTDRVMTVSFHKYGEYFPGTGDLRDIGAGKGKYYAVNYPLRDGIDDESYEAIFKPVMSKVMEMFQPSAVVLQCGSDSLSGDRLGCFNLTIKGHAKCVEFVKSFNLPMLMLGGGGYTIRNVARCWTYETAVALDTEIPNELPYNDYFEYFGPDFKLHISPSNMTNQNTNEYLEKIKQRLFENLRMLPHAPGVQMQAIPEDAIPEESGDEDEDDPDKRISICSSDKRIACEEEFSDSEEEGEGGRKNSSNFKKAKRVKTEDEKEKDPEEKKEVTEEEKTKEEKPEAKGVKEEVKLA

In the case of `CC(C)C[C@H](NC(=O)[C@H](Cc1ccccc1)NC(=O)c1ccc(C(=O)Nc2ccccc2N)cc1)B1O[C@@H]2[C@@H]3C[C@H](C[C@]2(C)O1)C3(C)C`, the inhibition result in experiment [1], in experiment [2] and in experiment [3] was “Active” in each case.

Turning to `CC(C)C[C@H](NC(=O)CNC(=O)c1cccc(/C=C/C(=O)NO)c1)B1O[C@@H]2[C@@H]3C[C@H](C[C@]2(C)O1)C3(C)C`, the inhibition result in experiment [4] is “Active”.
